From patent US9884825B2, “Curcumin analogs and methods of making and using thereof” (Georgia State University Research Foundation, Inc., priority 2012, dated 2018)

Row | Structure (SMILES) | melting point [°C]
1 | CCCCn1cc(CN2CC(=Cc3ccc(CC)cc3)C(=O)C(=Cc3ccc(CC)cc3)C2)nn1 [12b, 1-((1-Butyl-1H-1,2,3-triazol-4-yl)methyl)-3,5-bis(4-ethylbenzylidene)piperidin-4-one] | 150
2 | CCCCCn1cc(CN2CC(=Cc3ccc(CC)cc3)C(=O)C(=Cc3ccc(CC)cc3)C2)nn1 [12c, 3,5-Bis(4-ethylbenzylidene)-1-((1-pentyl-1H-1,2,3-triazol-4-yl)methyl)piperidin-4-one] | 156
3 | CCCn1cc(CN2CC(=Cc3ccc(C(C)C)cc3)C(=O)C(=Cc3ccc(C(C)C)cc3)C2)nn1 [13a, 3,5-Bis(4-isopropylbenzylidene)-1-((1-propyl-1H-1,2,3-triazol-4-yl)methyl)piperidin-4-one] | 144
4 | CCCCn1cc(CN2CC(=Cc3ccc(C(C)C)cc3)C(=O)C(=Cc3ccc(C(C)C)cc3)C2)nn1 [13b, 1-((1-Butyl-1H-1,2,3-triazol-4-yl)methyl)-3,5-bis(4-isopropylbenzylidene)piperidin-4-one] | 145
5 | CCCCCn1cc(CN2CC(=Cc3ccc(C(C)C)cc3)C(=O)C(=Cc3ccc(C(C)C)cc3)C2)nn1 [13c, 3,5-Bis(4-isopropylbenzylidene)-1-((1-pentyl-1H-1,2,3-triazol-4-yl)methyl)piperidin-4-one] | 143
6 | CCCn1cc(CN2CC(=Cc3ccc(C(C)(C)C)cc3)C(=O)C(=Cc3ccc(C(C)(C)C)cc3)C2)nn1 [14a, 3,5-Bis(4-tert-butylbenzylidene)-1-((1-propyl-1H-1,2,3-triazol-4-yl)methyl)piperidin-4-one] | 182
7 | CCCCn1cc(CN2CC(=Cc3ccc(C(C)(C)C)cc3)C(=O)C(=Cc3ccc(C(C)(C)C)cc3)C2)nn1 [14b, 1-[(1-Butyl-1H-1,2,3-triazol-4-yl)methyl]-3,5-bis(4-tert-butylbenzylidene)piperidin-4-one] | 145
8 | CCCCCn1cc(CN2CC(=Cc3ccc(C(C)(C)C)cc3)C(=O)C(=Cc3ccc(C(C)(C)C)cc3)C2)nn1 [14c, 3,5-Bis(4-tert-butylbenzylidene)-1-[(1-pentyl-1H-1,2,3-triazol-4-yl)methyl]piperidin-4-one] | 146
9 | CCCc1ccc(C=C2CN(Cc3cn(CCC)nn3)CC(=Cc3ccc(CCC)cc3)C2=O)cc1 [15a, 1-[(1-Propyl-1H-1,2,3-triazol-4-yl)methyl]-3,5-bis(4-propylbenzylidene)piperidin-4-one] | 133
10 | CCCCCn1cc(CN2CC(=Cc3ccc(CCC)cc3)C(=O)C(=Cc3ccc(CCC)cc3)C2)nn1 [15c, 1-[(1-Pentyl-1H-1,2,3-triazol-4-yl)methyl]-3,5-bis(4-propylbenzylidene)piperidin-4-one] | 134
11 | CCCCc1ccc(C=C2CN(Cc3cn(CCC)nn3)CC(=Cc3ccc(CCCC)cc3)C2=O)cc1 [16a, 3,5-Bis(4-butylbenzylidene)-1-[(1-propyl-1H-1,2,3-triazol-4-yl)methyl]piperidin-4-one] | 127
12 | CCCCc1ccc(C=C2CN(Cc3cn(CCCC)nn3)CC(=Cc3ccc(CCCC)cc3)C2=O)cc1 [16b, 1-[(1-Butyl-1H-1,2,3-triazol-4-yl)methyl]-3,5-bis(4-butylbenzylidene)piperidin-4-one] | 136
13 | CCCCCn1cc(CN2CC(=Cc3ccc(CCCC)cc3)C(=O)C(=Cc3ccc(CCCC)cc3)C2)nn1 [16c, 3,5-Bis(4-butylbenzylidene)-1-[(1-pentyl-1H-1,2,3-triazol-4-yl)methyl]piperidin-4-one] | 145
